Legend:
blackgrass = assay: Test A postemergence; assay type: in vivo, Alopecurus myosuroides; settings: 0 to 100 scale (0 no effect, 100 complete control), approx. 10 d
Source text: (§1) Seeds of plant species selected from barnyardgrass (Echinochloa crus-galli), crabgrass, large (large crabgrass, Digitaria sanguinalis), kochia (Kochia scoparia), ragweed (common ragweed, Ambrosia elatior), foxtail, giant (giant foxtail, Setaria faberii), morningglory (Ipomoea spp.), pigweed (Amaranthus retroflexus), velvetleaf (Abutilon theophrasti), ryegrass, Italian (Italian ryegrass, Lolium multiflorum), wheat (Triticum aestivum), and corn (Zea mays) were planted into a blend of loam soil and sand and treated preemergence with a directed soil spray using test chemicals formulated in a non-phytotoxic solvent mixture which included a surfactant.
(§2) At the same time, plants selected from these crop and weed species and also blackgrass (Alopecurus myosuroides), and galium (catchweed bedstraw, Galium aparine), were planted in pots containing the same blend of loam soil and sand and treated with postemergence applications of test chemicals formulated in the same manner. Plants ranged in height from 2 to 10 cm and were in the one- to two-leaf stage for the postemergence treatment. Treated plants and untreated controls were maintained in a greenhouse for approximately 10 d, after which time all treated plants were compared to untreated controls and visually evaluated for injury. Plant response ratings, summarized in Table A, are based on a 0 to 100 scale where 0 is no effect and 100 is complete control. A dash (-) response means no test result.

galium = assay: Test A postemergence; assay type: in vivo, Galium aparine; settings: 0 to 100 scale (0 no effect, 100 complete control), approx. 10 d
Source text: as §1, §2

kochia [1] = assay: Test A preemergence; assay type: in vivo, Kochia scoparia; settings: 0 to 100 scale (0 no effect, 100 complete control)
Source text: as §1, §2

barnyardgrass [2] = assay: Test A preemergence; assay type: in vivo, Echinochloa crus-galli; settings: 0 to 100 scale (0 no effect, 100 complete control)
Source text: as §1, with “surfactant. At the same time, plants selected from these crop and weed species and also blackgrass (Alopecurus myosuroides), and galium (catchweed bedstraw, Galium aparine), were planted in pots containing the same blend of loam soil and sand and treated with postemergence applications of test chemicals formulated in the same manner. Plants ranged in height from 2 to 10 cm and were in the one- to two-leaf stage for the postemergence treatment. […] A dash (-) response means no test result.” for “surfactant.”

pigweed [3] = assay: Test A preemergence; assay type: in vivo, Amaranthus retroflexus; settings: 0 to 100 scale (0 no effect, 100 complete control)
Source text: as §1, with “surfactant. At the same time, plants selected from these crop and weed species and also blackgrass (Alopecurus myosuroides), and galium (catchweed bedstraw, Galium aparine), were planted in pots containing the same blend of loam soil and sand and treated with postemergence applications of test chemicals formulated in the same manner. Plants ranged in height from 2 to 10 cm and were in the one- to two-leaf stage for the postemergence treatment. […] A dash (-) response means no test result.” for “surfactant.”

ryegrass, Italian [4] = assay: Test A postemergence; assay type: in vivo, Lolium multiflorum; settings: 0 to 100 scale (0 no effect, 100 complete control), approx. 10 d
Source text: as §1, §2

corn = assay: Test A postemergence; assay type: in vivo, Zea mays; settings: 0 to 100 scale (0 no effect, 100 complete control), approx. 10 d
Source text: as §1, with “surfactant. At the same time, plants selected from these crop and weed species and also blackgrass (Alopecurus myosuroides), and galium (catchweed bedstraw, Galium aparine), were planted in pots containing the same blend of loam soil and sand and treated with postemergence applications of test chemicals formulated in the same manner. Plants ranged in height from 2 to 10 cm and were in the one- to two-leaf stage for the postemergence treatment. […] A dash (-) response means no test result.” for “surfactant.”

kochia [5] = assay: Test A postemergence; assay type: in vivo, Kochia scoparia; settings: 0 to 100 scale (0 no effect, 100 complete control), approx. 10 d
Source text: as §1, §2

wheat = assay: Test A postemergence; assay type: in vivo, Triticum aestivum; settings: 0 to 100 scale (0 no effect, 100 complete control), approx. 10 d
Source text: as §1, with “surfactant. At the same time, plants selected from these crop and weed species and also blackgrass (Alopecurus myosuroides), and galium (catchweed bedstraw, Galium aparine), were planted in pots containing the same blend of loam soil and sand and treated with postemergence applications of test chemicals formulated in the same manner. Plants ranged in height from 2 to 10 cm and were in the one- to two-leaf stage for the postemergence treatment. […] A dash (-) response means no test result.” for “surfactant.”

foxtail, giant [6] = assay: Test A postemergence; assay type: in vivo, Setaria faberii; settings: 0 to 100 scale (0 no effect, 100 complete control), approx. 10 d
Source text: as §1, with “surfactant. At the same time, plants selected from these crop and weed species and also blackgrass (Alopecurus myosuroides), and galium (catchweed bedstraw, Galium aparine), were planted in pots containing the same blend of loam soil and sand and treated with postemergence applications of test chemicals formulated in the same manner. Plants ranged in height from 2 to 10 cm and were in the one- to two-leaf stage for the postemergence treatment. […] A dash (-) response means no test result.” for “surfactant.”

ryegrass, Italian [7] = assay: Test A preemergence; assay type: in vivo, Lolium multiflorum; settings: 0 to 100 scale (0 no effect, 100 complete control)
Source text: as §1, §2

pigweed [8] = assay: Test A postemergence; assay type: in vivo, Amaranthus retroflexus; settings: 0 to 100 scale (0 no effect, 100 complete control), approx. 10 d
Source text: as §1, with “surfactant. At the same time, plants selected from these crop and weed species and also blackgrass (Alopecurus myosuroides), and galium (catchweed bedstraw, Galium aparine), were planted in pots containing the same blend of loam soil and sand and treated with postemergence applications of test chemicals formulated in the same manner. Plants ranged in height from 2 to 10 cm and were in the one- to two-leaf stage for the postemergence treatment. […] A dash (-) response means no test result.” for “surfactant.”

foxtail, giant [9] = assay: Test A preemergence; assay type: in vivo, Setaria faberii; settings: 0 to 100 scale (0 no effect, 100 complete control)
Source text: as §1, with “surfactant. At the same time, plants selected from these crop and weed species and also blackgrass (Alopecurus myosuroides), and galium (catchweed bedstraw, Galium aparine), were planted in pots containing the same blend of loam soil and sand and treated with postemergence applications of test chemicals formulated in the same manner. Plants ranged in height from 2 to 10 cm and were in the one- to two-leaf stage for the postemergence treatment. […] A dash (-) response means no test result.” for “surfactant.”

ragweed [10] = assay: Test A postemergence; assay type: in vivo, Ambrosia elatior; settings: 0 to 100 scale (0 no effect, 100 complete control), approx. 10 d
Source text: as §1, §2

barnyardgrass [11] = assay: Test A postemergence; assay type: in vivo, Echinochloa crus-galli; settings: 0 to 100 scale (0 no effect, 100 complete control), approx. 10 d
Source text: as §1, with “surfactant. At the same time, plants selected from these crop and weed species and also blackgrass (Alopecurus myosuroides), and galium (catchweed bedstraw, Galium aparine), were planted in pots containing the same blend of loam soil and sand and treated with postemergence applications of test chemicals formulated in the same manner. Plants ranged in height from 2 to 10 cm and were in the one- to two-leaf stage for the postemergence treatment. […] A dash (-) response means no test result.” for “surfactant.”

ragweed [12] = assay: Test A preemergence; assay type: in vivo, Ambrosia elatior; settings: 0 to 100 scale (0 no effect, 100 complete control)
Source text: as §1, §2

Row | SMILES | Plant response rating, Blackgrass (blackgrass; 31 g ai/ha) | Plant response rating, Blackgrass (blackgrass; 125 g ai/ha) | Plant response rating, Galium (galium; 31 g ai/ha) | Plant response rating, Galium (galium; 125 g ai/ha) | Plant response rating, Kochia (kochia [1]; 31 g ai/ha) | Plant response rating, Kochia (kochia [1]; 125 g ai/ha) | Plant response rating, Barnyardgrass (barnyardgrass [2]; 31 g ai/ha) | Plant response rating, Barnyardgrass (barnyardgrass [2]; 125 g ai/ha) | Plant response rating, Pigweed (pigweed [3]; 31 g ai/ha) | Plant response rating, Pigweed (pigweed [3]; 125 g ai/ha) | Plant response rating, Ryegrass, Italian (ryegrass, Italian [4]; 31 g ai/ha) | Plant response rating, Ryegrass, Italian (ryegrass, Italian [4]; 125 g ai/ha) | Plant response rating, Corn (corn; 31 g ai/ha) | Plant response rating, Corn (corn; 125 g ai/ha) | Plant response rating, Kochia (kochia [5]; 31 g ai/ha) | Plant response rating, Kochia (kochia [5]; 125 g ai/ha) | Plant response rating, Wheat (wheat; 31 g ai/ha) | Plant response rating, Wheat (wheat; 125 g ai/ha) | Plant response rating, Foxtail, Giant (foxtail, giant [6]; 31 g ai/ha) | Plant response rating, Foxtail, Giant (foxtail, giant [6]; 125 g ai/ha) | further results
1 | COc1nc(-c2ccc(OC(F)(F)F)cc2)nn1Cc1ccnc(C(F)(F)F)c1 [Compound 40] | 0 | 0 | 20 | 30 | 0 | 0 | 0 | 0 | 0 | 30 | 0 | 0 | 0 | 20 | 0 | 0 | 0 | 0 | 0 | 0 | Plant response rating, Ryegrass, Italian (ryegrass, Italian [7]; 31 g ai/ha): 0; Plant response rating, Ryegrass, Italian (ryegrass, Italian [7]; 125 g ai/ha): 0; Plant response rating, Pigweed (pigweed [8]; 31 g ai/ha): 30; Plant response rating, Pigweed (pigweed [8]; 125 g ai/ha): 70; Plant response rating, Foxtail, Giant (foxtail, giant [9]; 31 g ai/ha): 0; Plant response rating, Foxtail, Giant (foxtail, giant [9]; 125 g ai/ha): 0; Plant response rating, Ragweed (ragweed [10]; 31 g ai/ha): 0; Plant response rating, Ragweed (ragweed [10]; 125 g ai/ha): 0; Plant response rating, Barnyardgrass (barnyardgrass [11]; 31 g ai/ha): 0; Plant response rating, Barnyardgrass (barnyardgrass [11]; 125 g ai/ha): 0; Plant response rating, Ragweed (ragweed [12]; 31 g ai/ha): 0; Plant response rating, Ragweed (ragweed [12]; 125 g ai/ha): 0
2 | CCCOc1nc(-c2ccc(C(F)(F)F)cc2)nn1Cc1ccnc(C(F)(F)F)c1 [Compound 41] | 20 | 30 | 60 | 90 | 30 | 60 | 30 | 40 | 90 | 90 | 20 | 30 | 20 | 30 | 70 | 90 | 0 | 20 | 30 | 50 | Plant response rating, Ryegrass, Italian (ryegrass, Italian [7]; 31 g ai/ha): 20; Plant response rating, Ryegrass, Italian (ryegrass, Italian [7]; 125 g ai/ha): 40; Plant response rating, Pigweed (pigweed [8]; 31 g ai/ha): 80; Plant response rating, Pigweed (pigweed [8]; 125 g ai/ha): 90; Plant response rating, Foxtail, Giant (foxtail, giant [9]; 31 g ai/ha): 70; Plant response rating, Foxtail, Giant (foxtail, giant [9]; 125 g ai/ha): 90; Plant response rating, Ragweed (ragweed [10]; 31 g ai/ha): 50; Plant response rating, Ragweed (ragweed [10]; 125 g ai/ha): 70; Plant response rating, Barnyardgrass (barnyardgrass [11]; 31 g ai/ha): 30; Plant response rating, Barnyardgrass (barnyardgrass [11]; 125 g ai/ha): 40; Plant response rating, Ragweed (ragweed [12]; 31 g ai/ha): 20; Plant response rating, Ragweed (ragweed [12]; 125 g ai/ha): 30
3 | CCc1nc(-c2ccncc2)nn1Cc1ccnc(C(F)(F)F)c1 [Compound 39] | 0 | 0 | 40 | 60 | 0 | 0 | 0 | 0 | 30 | 90 | 0 | 0 | 0 | 20 | 50 | 70 | 0 | 0 | 10 | 20 | Plant response rating, Ryegrass, Italian (ryegrass, Italian [7]; 31 g ai/ha): 0; Plant response rating, Ryegrass, Italian (ryegrass, Italian [7]; 125 g ai/ha): 0; Plant response rating, Pigweed (pigweed [8]; 31 g ai/ha): 60; Plant response rating, Pigweed (pigweed [8]; 125 g ai/ha): 70; Plant response rating, Foxtail, Giant (foxtail, giant [9]; 31 g ai/ha): 0; Plant response rating, Foxtail, Giant (foxtail, giant [9]; 125 g ai/ha): 30; Plant response rating, Ragweed (ragweed [10]; 31 g ai/ha): 20; Plant response rating, Ragweed (ragweed [10]; 125 g ai/ha): 30; Plant response rating, Barnyardgrass (barnyardgrass [11]; 31 g ai/ha): 0; Plant response rating, Barnyardgrass (barnyardgrass [11]; 125 g ai/ha): 10; Plant response rating, Ragweed (ragweed [12]; 31 g ai/ha): 0; Plant response rating, Ragweed (ragweed [12]; 125 g ai/ha): 0
4 | Cc1nc(-c2ccc(OC(F)(F)F)cc2)nn1Cc1ccnc(C(F)(F)F)c1 [Compound 37] | 0 | 20 | 0 | 20 | 0 | 0 | 0 | 0 | 10 | 20 | 0 | 0 | 10 | 20 | 20 | 70 | 0 | 0 | 0 | 0 | Plant response rating, Ryegrass, Italian (ryegrass, Italian [7]; 31 g ai/ha): 0; Plant response rating, Ryegrass, Italian (ryegrass, Italian [7]; 125 g ai/ha): 0; Plant response rating, Pigweed (pigweed [8]; 31 g ai/ha): 20; Plant response rating, Pigweed (pigweed [8]; 125 g ai/ha): 80; Plant response rating, Foxtail, Giant (foxtail, giant [9]; 31 g ai/ha): 0; Plant response rating, Foxtail, Giant (foxtail, giant [9]; 125 g ai/ha): 0; Plant response rating, Ragweed (ragweed [10]; 31 g ai/ha): 0; Plant response rating, Ragweed (ragweed [10]; 125 g ai/ha): 0; Plant response rating, Barnyardgrass (barnyardgrass [11]; 31 g ai/ha): 0; Plant response rating, Barnyardgrass (barnyardgrass [11]; 125 g ai/ha): 0; Plant response rating, Ragweed (ragweed [12]; 31 g ai/ha): 0; Plant response rating, Ragweed (ragweed [12]; 125 g ai/ha): 0
5 | Cc1nc(-c2ccc(Br)cc2)nn1Cc1ccnc(C(F)(F)F)c1 [Compound 36] | 10 | 30 | 50 | 90 | 60 | 90 | 0 | 60 | 90 | 90 | 0 | 0 | 20 | 30 | 70 | 90 | 0 | 10 | 20 | 70 | Plant response rating, Ryegrass, Italian (ryegrass, Italian [7]; 31 g ai/ha): 0; Plant response rating, Ryegrass, Italian (ryegrass, Italian [7]; 125 g ai/ha): 10; Plant response rating, Pigweed (pigweed [8]; 31 g ai/ha): 90; Plant response rating, Pigweed (pigweed [8]; 125 g ai/ha): 100; Plant response rating, Foxtail, Giant (foxtail, giant [9]; 31 g ai/ha): 20; Plant response rating, Foxtail, Giant (foxtail, giant [9]; 125 g ai/ha): 90; Plant response rating, Ragweed (ragweed [10]; 31 g ai/ha): 0; Plant response rating, Ragweed (ragweed [10]; 125 g ai/ha): 30; Plant response rating, Barnyardgrass (barnyardgrass [11]; 31 g ai/ha): 0; Plant response rating, Barnyardgrass (barnyardgrass [11]; 125 g ai/ha): 20; Plant response rating, Ragweed (ragweed [12]; 31 g ai/ha): 0; Plant response rating, Ragweed (ragweed [12]; 125 g ai/ha): 20
